Earlier results as cited in EP1336411A1, “Compositions and methods for improving enzyme replacement therapy of lysosomal storage diseases” (Academisch Medisch Centrum bij de Universiteit van Amsterdam, priority 2002, dated 2003).

Biological target: alpha-Galactosidase A (Homo sapiens, UniProt P06280)
Conditions: read-out: apparent Km; artificial substrate 4-methylumbelliferyl-alpha-D-galactopyranoside; pH 4.6 (maximal activity)

Chain of alpha-Galactosidase A (P06280 32-429): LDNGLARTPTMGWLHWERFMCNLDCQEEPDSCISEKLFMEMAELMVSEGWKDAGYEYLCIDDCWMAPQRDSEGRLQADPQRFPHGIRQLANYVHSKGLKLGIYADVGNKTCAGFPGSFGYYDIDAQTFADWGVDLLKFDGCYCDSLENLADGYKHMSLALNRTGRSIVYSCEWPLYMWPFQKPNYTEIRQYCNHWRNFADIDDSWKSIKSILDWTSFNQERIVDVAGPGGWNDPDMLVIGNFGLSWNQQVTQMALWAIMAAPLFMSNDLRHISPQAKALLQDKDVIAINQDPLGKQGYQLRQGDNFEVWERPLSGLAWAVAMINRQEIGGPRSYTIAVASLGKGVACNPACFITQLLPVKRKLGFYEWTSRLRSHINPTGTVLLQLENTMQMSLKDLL

- Km: 2000 µM
SMILES: Cc1cc(=O)oc2cc(O[C@H]3O[C@H](CO)[C@H](O)[C@H](O)[C@H]3O)ccc12 [4-methylumbelliferyl-alpha-D-galactopyranoside]
